Test system: synthèse de la mélanine
Assay: Intracellular melanin assay by spectrometry at 475 nm on reconstituted epidermis (Skinetic®) co-cultured with melanocytes
Format: cell-based, humaine
Details: positive control, concentration not given
Description: L'activité sur la pigmentation (effet dépigmentant et effet pigmentant) a été étudiée à travers • l'évaluation de l'activité de la tyrosinase • l'évaluation de la synthèse de la mélanine (étude qualitative de la mélanine intracellulaire par spectrométrie à 475 nm)
L'étude a été faite sur des épidermes reconstitués (Skinetic®). Des kératinocytes d'origine humaine sont cultivés dans un milieu défini (MCDB 153 modifié) et supplémentés. Les cellules sont cultivées pendant 10 jours à l'interface air/liquide, le milieu de culture étant changé tous les deux jours.
Les épidermes ainsi formés sont mis en co-culture avec des mélanocytes de phototypes II, IV et VI sur des filtres en polycarbonate. L'étude est réalisée entre le 11^ème et le 17^ème jour de la culture.
L'essai est conduit en triplicate après 3 jours de contact.
L'évaluation de la synthèse de la mélanine intracellulaire (étude qualitative) a été effectuée comme indiqué ci-dessus par spectrométrie à 475 nm après digestion des explants de peau humaine puis dissolution dans NaOH 1N et du diméthyl sulfoxyde pendant 30 minutes.

O=c1cc(CO)occ1O [acide kojique]
% (change vs negative control, 4320 min): -42% | Absorbance (475 nm) (3 days contact, triplicate): 0,107 ± 0,01

From EP1879602B1, “USE OF CACAO POLYPHENOLS FOR CONTROLLING SKIN PIGMENTATION” (priority 2005, dated 2006)
